Test results as given in patent publication US7122326B2 (Universite Louis Pasteur, priority 2001, dated 2006).
Entries after “also recorded” stand apart in the source; their conditions may differ. Read-outs that look alike come from different tables or passages of the source.

What was measured:
[1] = tested on: xanthurenic acid binding site(s); test: [3H]-XA binding to synaptic membranes, without ions; design: species or system rat; conditions: for [^3H]-XA binding displacement, screening: screening at 200 μM concentration
[2] = tested on: XA transport system; test: XA transport in differentiated NCB-20 cells; assay type: cell-based
Experimental: The cell culture was prepared by using a culture dish of NCB-20 cells at 80% confluence. The culture medium was removed and replaced with 10 ml of DMEM supplemented with 10% FCS. Cells were then detached and suspended by repeated passage of the medium through a 2 mm gauge needle. Cells were then counted in a hemocytometer. The final suspension was adjusted to a cell density of 3.10^4 cells/ml in DMEM medium supplemented with 10% FCS and 1 mM cAMP. Petri dishes were seeded with 2 ml of this suspension and incubated at 37° C. in a moisture-saturated CO2 atmosphere. Cells were used four days after inoculation.
The culture medium of 4-day NCB-20 cell cultures differentiated in cAMP was replaced by one of the buffer solutions described hereinabove (Krebs with or without Na^+, to respectively evaluate Na^+-dependent active transport and passive transport, which occurs mainly through diffusion) according to the type of experiment planned. Culture dishes were placed in a water bath at 37° C. for 10 minutes. The buffer was then replaced by the same buffer solution containing [^3H]-XA and XA at concentrations ranging from […]. [^3H]-XA was present at very low concentration and served only as a tracer of the cold (non-radiolabelled) XA. After 1 minute of incubation, the solutions were aspirated and the cells washed three times for 10 seconds with 1 ml of the same buffer (Krebs with or without Na^+), kept on ice. Active transport requires energy (ATP) and is markedly slowed at temperatures below 37° C. The washed cell layer was frozen in dishes then, the next day, distilled water was added to obtain a solution of cellular debris containing the intracellular radiolabel ([^3H]-XA). Freezing facilitated homogenization by repeated passage of the solution through a pipette. A 900 μl aliquot was added to scintillation fluid (Rotiszint®, 4 ml). The remainder of the solution was sampled to assay protein by the BCA method (Uptima). The radioactivity measured in the scintillation counter was converted by means of a suitable calibration curve into picomoles of XA taken up by the cells per mg of protein.
For each incubation time, transport was measured on nine dishes of NCB-20 cells with Na^+ and without Na^+. Ten different time points were studied: 0-10-30 seconds and 1, 2, 3, 5, 8, 10, 12 minutes. Four different experiments were carried out.
For each XA concentration, XA transport was measured on nine dishes of NCB-20 cells with Na^+ and nine dishes without Na^+. Seven different concentrations were tested: 1-5-12.5-25-50-100-200 μM. Four independent experiments were carried out.
Four milliliters of scintillator were added to the tubes containing 900 μl of the cell suspension obtained. The control tube contained 900 μl of doubly-distilled water, and the tubes used to measure specific activity contained 10 μl of the radioactive solutions used as reagent during the experiment and 890 μl of doubly-distilled water. The tubes were closed, vortexed and left overnight at 4° C. before being counted in the scintillation counter. This count measures intracellular radioactivity which is directly proportional to the quantity of XA that entered the cell through passive or active transport. To calculate the amount of active transport, passive transport (Krebs without Na^+) is simply subtracted from total transport (Krebs with Na^+).
Other endogenous molecules which might be transported by the XA transporter were tested. […] The results are shown in the histogram in FIG. 34 as the percentage entering the cells relative to transport in the presence of radiolabelled XA alone (=100%).

[3] = tested on: XA release in the PFC; test: XA release in prefrontal cortex, in vivo microdialysis; design: species or system rat
Experimental: Male Wistar rats weighing 350–400 g were used for the experiments. Animals were housed individually in plastic cages with a light/dark cycle of 7 a.m./7 p.m. and 7 p.m./7 a.m. Animals had access to food and water ad libitum. Animal experiments were conducted in strict accordance with the requirements of the European Directive of 24 Nov. 1986 (86/609/EEC).
The experiments were carried out using an L-shaped cannula with a 4 mm tip. A polycarbonate-polyether dialysis membrane (500 μm) with a 20 Kda cutoff was used. The dialysis membrane was inserted in the prefrontal cortex (PFC) while one of the tips of the bipolar stimulation electrode was implanted in the PFC and the other in the VTA. The procedure was performed under ketamine anesthesia.
The experiments were carried out in conscious animals, 24 to 72 hours after the surgery. The perfusion medium had the following composition: 147 mM NaCl, 1.2 mM CaCl2, 1.2 mM MgCl2, and 4.0 mM KCl, pH 6.5. In the case of stimulations at high potassium concentrations, sodium ion concentrations were lowered to the same value. In the case of stimulations in the absence of calcium ions, 2.0 mM EGTA was added to the dialysis medium. Dialysates were collected at a rate of 2 μl/min, every 5 minutes, and immediately stored in liquid nitrogen up to analysis.
These two compounds were quantitatively determined by HPLC chromatography with electrochemical detection. The chromatographic system consisted of a 25 cm×4.6 mm Hypersyl C18 column, maintained at constant temperature. The mobile phase was 0.05 M NaH2PO4 buffer+0.1 mM EDTA and 6% methanol. Peaks were identified by comparison with the retention times measured on calibration standard solutions.
The VTA was stimulated for a period of 10 minutes, with bursts of thirty 0.5-msec pulses for 100 millisec, intensity 100 or 200 μA and at a frequency of 25 Hz.

[4] = tested on: rat; test: Rotations in rats with unilateral 6-OHDA lesions; assay type: in vivo; conditions: 6-OHDA-lesioned rats, four weeks after lesion; apomorphine s.c. (0.1 and 1.0 mg/kg)
[5] = tested on: dopaminergic neurons; test: Residual dopamine content after 6-OHDA lesion; assay type: in vivo, rat
[6] = target: xanthurenic acid binding site(s); test: Effect of ions on xanthurenic acid binding to synaptic membranes; design: species or system rat; conditions: read-out: EC50 of ions on xanthurenic acid binding
[7] = target: xanthurenic acid binding site(s); test: [3H]-XA binding to synaptic membranes in the presence of copper ions; design: species or system rat; conditions: read-out: EC50 (50% effective concentration) on XA binding; Tris maleate pH 6.5, room temperature, 400 nM [^3H]-XA (+20 μM xanthurenic acid) (FIG. 17)
[8] = unilateral 6-OHDA lesion of VTA and SNc, ±SEM (n=3)

Compound: Nc1c(O)cccc1C(=O)CC(N)C(=O)O (racemic) [3OH-D,L-kynurenin]
- [^3H]-XA binding displacement, screening [1]: None of these compounds caused significant displacement

Compound: O=C(O)c1cc(=O)c2ccccc2[nH]1 [kynurenic acid]
- inhibition of cellular transport of XA ([2]; NCB-20 cells (FIG. 34)): good inhibitors
- [^3H]-XA binding displacement, screening [1]: no displacement of [^3H]-XA from its binding site(s) but rather a potentiation of this binding

Compound: [Cl-].[K+] [KCl]
- XA release in the PFC extracellular medium, % of the baseline value ([3]; 100 mM KCl in the dialysis probe for 5 minutes, after 40 minutes): 250%

Compound: Nc1c(O)cccc1C(=O)O [3-hydroxyanthranilic acid]
- [^3H]-XA binding displacement, screening [1]: None of these compounds caused significant displacement

Compound: N[C@@H](Cc1c[nH]c2ccc(O)cc12)C(=O)O [5-hydroxy-L-tryptophan]
- [^3H]-XA binding displacement, screening [1]: None of these compounds caused significant displacement

Compound: CN1CCc2cccc3c2[C@H]1Cc1ccc(O)c(O)c1-3 [apomorphine]
- number of controlateral rotations [4]: 130±45 turns/15 minutes

Compound: Nc1ccccc1C(=O)C[C@H](N)C(=O)O [L-kynurenin]
- [^3H]-XA binding displacement, screening [1]: None of these compounds caused significant displacement

Compound: N[C@@H](Cc1c[nH]c2ccccc12)C(=O)O [L-tryptophan]
- inhibition of cellular transport of XA [2]: good inhibitors; also recorded: inhibit this transport

Compound: NC1=N[C@H](O)[C@H]2[C@H]3O[C@]4(O)O[C@@H]([C@@H](O)[C@@]2(N1)[C@@H]4O)[C@]3(O)CO [tetrodotoxin]
- XA release in PFC induced by electrical stimulation of the VTA ([3]; rat, in vivo): completely blocked

Compound: Nc1ncnc2nc[nH]c12 [adenine]
- affinity for the xanthurenic acid site / inhibition of tritiated XA binding [1]: showed significant affinity for the xanthurenic acid site and inhibited the binding of tritiated XA

Compound: veratrine
- XA release in the PFC, % of baseline ([3]; 50 μM in the probe for 20 minutes, after 20 minutes): approximately 600%

Compound: Br.NCCc1cc(O)c(O)cc1O [6-OHDA, 6-hydroxydopamine hydrobromide]
- residual dopamine content, damaged VTA —SNc [5, 8]: 32±31 pmoles/g of wet tissue
- residual dopamine content, damaged striatum [5, 8]: 261±123 pmoles/g of wet tissue
- change of dopamine content, damaged versus intact striatum ([5]; unilateral 6-OHDA lesion, p=0.0033): −98%
- change of dopamine content, damaged versus intact VTA —SNc ([5]; unilateral 6-OHDA lesion, p=0.0157): −95%

Compound: [Cl][Cu][Cl] [copper ions, CuCl2]
- EC50 ([6]; 50 mM Tris maleate pH 6.5, 0° C., 200 nM [^3H]-XA (FIG. 14)): ~100 µM
- EC50 [7]: 33.4 µM

Compound: Nc1ncnc2c1ncn2[C@@H]1O[C@H](COP(=O)(O)OP(=O)(O)O)[C@@H](O)[C@H]1O [adenosine diphosphate]
- affinity for the xanthurenic acid site / inhibition of tritiated XA binding [1]: showed significant affinity for the xanthurenic acid site and inhibited the binding of tritiated XA

Compound: [Cl-].[Cl-].[Zn+2] [zinc ions, ZnCl2]
- potentiation of XA transport ([2]; ions present in the medium (FIG. 34)): highly significant potentiation
- EC50 ([6]; pH 6.5): ~500 µM

Compound: O=C(O)c1ccccn1 [picolinic acid]
- [^3H]-XA binding displacement, screening [1]: None of these compounds caused significant displacement

Compound: Nc1ncnc2c1ncn2[C@@H]1O[C@H](COP(=O)(O)OP(=O)(O)OP(=O)(O)O)[C@@H](O)[C@H]1O [adenosine triphosphate]
- affinity for the xanthurenic acid site / inhibition of tritiated XA binding [1]: showed significant affinity for the xanthurenic acid site and inhibited the binding of tritiated XA

Compound: O=CC[C@@H](O)[C@H](O)[C@H](O)CO [2-deoxyglucose]
- decrease in XA transport ([2]; cellular energy production blocked (FIG. 34)): ~50%

Compound: Nc1ncnc2c1ncn2[C@@H]1O[C@H](CO)[C@@H](O)[C@H]1O [adenosine]
- affinity for the xanthurenic acid site / inhibition of tritiated XA binding [1]: showed significant affinity for the xanthurenic acid site and inhibited the binding of tritiated XA

Compound: N[C@@H](Cc1ccc(O)cc1)C(=O)O [L-tyrosine]
- inhibition of cellular transport of XA ([2]; NCB-20 cells (FIG. 34)): good inhibitors
- inhibition of cellular transport of XA ([2]; NCB-20 cells (FIG. 34), listed as tyrosine): inhibit this transport
